16 compounds from patent publication US11396496B2, “1,4-substituted isoquinoline inhibitors of KEAP1/NRF2 protein-protein interaction” (THE BOARD OF TRUSTEES OF THE UNIVERSITY OF ILLINOIS, priority 2018, dated 2022) can be followed below.

pIC50: −log10 of the molar value.

The nature of data set [1]: Log D7.4 (1-octanol / HEPES buffer pH 7.4). In kind it is physicochemical. As to conditions: HEPES buffer pH 7.4 / 1-octanol, mean of triplicate; for logD at 1 h: 1-octanol / HEPES buffer. The method, then:
This solution was diluted to nine known concentration solutions (1200, 800, 400, 120, 80, 40, 12, 8, and 4 μM) in MeCN. Each solution was analyzed by HPLC, and a calibration curve was plotted using the peak areas from the standard concentrations. 20 μL of the 10 mM DMSO stock solution of each compound was partitioned between […] of buffer (200 mM HEPES, 150 mM NaCl, pH 7.4) and […] of 1-octanol. The mixture was mixed for 1 h. Each layer was injected separately onto a Shimadzu LC-20AB HPLC system (Solvent system: gradient from 15% MeCN/85% H2O to 95% MeCN/5% H2O (+0.1% formic acid) over 13 min; Column, Shimadzu C18, […], 50×4.6 mm; UV, 254 nm). The equilibrium solubility in the buffer layer and the 1-octanol layer of test compounds was determined by quantifying the concentration of test solutions against the calibration curve. Experiments were run in triplicate, and results were tabulated and reported as mean. […] Thus, including an electron withdrawing group at position R^4 results in improved pharmacokinetics, such as an improved ability to cross cell membranes.

For another data set, the target named is Kelch domain of KEAP1 (Homo sapiens (Human), UniProt Q14145). In words: Fluorescence anisotropy assay of KEAP1-NRF2 interaction inhibition. It counts as binding. As to conditions: for binding affinity (in words): qualitative statement on the fluorescence anisotropy results. The method, then:
The IC50 of the compounds for inhibiting the interaction of a fluorescent NRF2 peptide and the Kelch domain of KEAP1 was determined using fluorescence anisotropy. See Inoyama et al., J. Biomol.
Test compounds' ability to inhibit the KEAP1-NRF2 interaction were assayed using the Kelch domain of KEAP1 and a fluorescein-labeled 9-mer peptide containing the ETGE motif of the Neh2 domain of NRF2. The experiments were performed in triplicate, and sigmoidal concentration-response curves were fitted to the data using Graphpad Prism 6.1 software.
(In general: Fluorescence polarisation rises when a labelled molecule tumbles more slowly, as on binding a larger partner.)

A short description of data set [2]: Microsomal stability study. In kind it is in vitro ADME. Particulars: human liver microsomes in buffer, 20 min. The source says:
LC-MS grade acetonitrile (MeCN), methanol (MeOH), formic acid, and biology grade DMSO were purchased from Fisher Scientific (Pittsburgh, Pa.). LC-MS grade water was generated using a Barnstead Nanopure Diamond water system (Thermo Scientific, Pittsburgh, Pa.). All other reagents, if not specified, were purchased from Sigma-Aldrich (Saint Louis, Mo.). Pooled human liver microsomes and mouse liver microsomes were purchased from Sekisui XenoTech (Kansas City, Kans.). Preparation of Standard. The initial stock solutions of test compounds were prepared in DMSO at 10 mM, and then diluted with MeOH to 200 μM before use. All stock solutions were stored at −20° C. Liver microsomes were aliquoted upon arrival and stored at −80° C. Samples were analyzed on a Shimadzu 8040 triple-quadrupole mass spectrometer (Shimadzu, Addison, Ill.) equipped with electrospray ion source and Shimadzu Nexera XR UHPLC system. Mobile phase A contained water with 0.025% (v/v) FA, and mobile phase B consisted of MeCN with 0.1% (v/v) FA. Five microliters of sample was injected. Study compounds were eluted on a Kinetex C18 column (3.0×50 mm, 2.6 μm; Phenomenex, Torrance, Calif.) at 500 μL/min using a gradient program: mobile phase B started and maintained at 15% for 1 min, then increased to 95% in 4 min. Nebulizing gas flow and drying gas flow were set to 2 and 15 L/min. DL temperature, heat block temperature, and ion spray voltage were maintained at 300° C., 450° C. and 4500 V, respectively.

A further data set has as its system NRF2. Briefly: NRF2 stabilization by Western Blot in HaCaT keratinocytes. In kind it is cell-based, human. Particulars: HaCaT cells, 10 μM compound, 6 h, relative to vehicle (DMSO) control. The method, then:
(§1) Molecules that block the degradatior of NRF2 serve as NRF2 activators. This has the effect of stabilizing NRF2 protein levels and upregulating target gene levels, such as NQO1. […] CDDO is a positive control compound that activates NRF2 through an electrophilic mechanism. […] HaCat Cells were treated with 10 μM compound unless otherwise indicated.
(§2) Spontaneously immortalized human keratinocytes (HaCaT cell line) were grown in Dubecco's modified Eagle's medium (DMEM) with 10% fetal bovine serum and 1% antibiotics. […] Cells were lysed in a 20 mM Tris (pH 7.5) buffer containing 150 mM NaCl, 1 mM EDTA, 1 mM EGTA, 1% Triton X-100, 2.5 mM sodium pyrophosphate, 1 mM Na3VO4, 5 mM β-glycerophosphate, and 1 μg/mL leupeptin. Equal amount of protein (˜40 μg) was separated on a 10% SDS-PAGE, blotted on the membrane, and probed with antiNRF2, or anti-NQO1 antibody. […] CDDO is a positive control compound that activates NRF2 through an electrophilic mechanism.

The test system of data set [3] is NADPH quinone oxidoreductase (NQO1). In words: NRF2 target gene activation: NQO1 protein levels by Western Blot in HaCaT keratinocytes. In kind it is cell-based, human. As to conditions: HaCaT cells, 10 μM compound, 6 h. The protocol: as §1, §2
In general terms: Immunoblotting shows a protein as a band on a membrane.

[4] abbreviates: fluorescent NRF2 peptide and Kelch domain of KEAP1, fluorescence anisotropy.

Chain of Kelch domain of KEAP1 (Q14145 321-609): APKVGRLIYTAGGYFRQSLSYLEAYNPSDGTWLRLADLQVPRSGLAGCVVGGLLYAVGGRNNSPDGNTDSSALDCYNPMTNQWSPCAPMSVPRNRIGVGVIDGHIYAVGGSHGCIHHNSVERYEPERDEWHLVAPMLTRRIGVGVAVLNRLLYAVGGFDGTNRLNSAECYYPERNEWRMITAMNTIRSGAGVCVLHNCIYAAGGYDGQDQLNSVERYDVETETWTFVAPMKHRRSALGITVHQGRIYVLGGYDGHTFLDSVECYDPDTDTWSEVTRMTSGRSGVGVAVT

As usually defined, the logD is lipophilicity at a set pH, counting ionised and neutral species. As to `COc1ccc(S(=O)(=O)N(CC(=O)O)c2cnc(N(CC(=O)O)S(=O)(=O)c3ccc(OC)cc3)c3ccccc23)cc1` [Compound A1, 2,2′-(isoquinoline-1,4-diylbis(((4-methoxyphenyl)sulfonyl)azanediyl))diacetic acid], the logD in data set [1] is recorded as −1.5.

Broadly, the pIC50 is −log10 of the IC50, conventionally taken in molar units. A low value points to a high IC50. Take `COc1ccc(S(=O)(=O)Nc2ncc(N(CC(=O)O)S(=O)(=O)c3ccc(OC)cc3)c3ccccc23)cc1` [Compound A2, N-(1-((4-methoxyphenyl)sulfonamido)isoquinolin-4-yl)-N-((4-methoxyphenyl)sulfonyl)glycine]: the logD at 1 h in data set [1] was -0.5. Moreover, at Kelch domain of KEAP1 (setting [4]), the pIC50 is 5.92.

For the compound `COc1ccc(S(=O)(=O)N(C)c2ncc(N(CC(=O)O)S(=O)(=O)c3ccc(OC)cc3)c3ccccc23)cc1` [Compound A3, N-(1-((4-methoxy-N-methylphenyl)sulfonamido)isoquinolin-4-yl)-N-((4-methoxyphenyl)sulfonyl)glycine], the logD at 1 h in data set [1] stood at 0. In data set [2], the metabolic stability result is “significantly more metabolically stable”. The compound further gave a pIC50 at Kelch domain of KEAP1 (setting [4]) of 5.70.

Take `O=C(O)CN(c1cnc(N(CC(=O)O)S(=O)(=O)c2ccc(O)cc2)c2ccccc12)S(=O)(=O)c1ccc(O)cc1` [Compound A4, 2,2′-(isoquinoline-1,4-diylbis(((4-hydroxyphenyl)sulfonyl)azanediyl))diacetic acid]: the pIC50 on Kelch domain of KEAP1 (setting [4]) was 6.28. Moreover, the “binding affinity (in words)” value at Kelch domain of KEAP1 is “high binding affinities”.

`O=C(O)CN(c1cnc(N(CC(=O)O)S(=O)(=O)c2ccc(F)cc2)c2ccccc12)S(=O)(=O)c1ccc(F)cc1` [Compound A5, 2,2′-(isoquinoline-1,4-diylbis(((4-fluorophenyl)sulfonyl)azanediyl))diacetic acid] had a negative-log IC50 (pIC50) at Kelch domain of KEAP1 (setting [4]) of 6.46. Besides, the “binding affinity (in words)” value on Kelch domain of KEAP1 is “high binding affinities”.

Consider `COc1ccc(S(=O)(=O)Nc2cnc(N(CC(=O)O)S(=O)(=O)c3ccc(OC)cc3)c3ccccc23)cc1` [Compound A6, N-(4-((4-methoxyphenyl)sulfonamido)isoquinolin-1-yl)-N-((4-methoxyphenyl)sulfonyl)glycine], for which the “stabilization of NRF2 expression” value in the data set on NRF2 is recorded as “stabilize NRF2 expression”. Further, in data set [1], the pH-dependent lipophilicity (logD) is −1.6. Further, in data set [2], the metabolic stability result is reported as “degraded substantially”. The compound also showed a pIC50 at Kelch domain of KEAP1 (setting [4]) of 6.67. In addition, in data set [3], the “levels of NQO1” value is reported as “increase the levels of NQO1”.

`COc1ccc(S(=O)(=O)N(C)c2cnc(N(CC(=O)O)S(=O)(=O)c3ccc(OC)cc3)c3ccccc23)cc1` [Compound A8, N-(4-((4-methoxy-N-methylphenyl)sulfonamido)isoquinolin-1-yl)-N-((4-methoxyphenyl)sulfonyl)glycine]: the pH-dependent lipophilicity (logD) at 1 h in data set [1] was found to be 0. For the same compound, the metabolic stability result in data set [2] is “degraded substantially”. For the same compound, the pIC50 on Kelch domain of KEAP1 (setting [4]) is 5.96. The “binding affinity (in words)” value at Kelch domain of KEAP1 is “significantly diminished the binding affinity”.

For the compound `[2H]C([2H])([2H])N(c1cnc(N(CC(=O)O)S(=O)(=O)c2ccc(OC)cc2)c2ccccc12)S(=O)(=O)c1ccc(OC)cc1` [Compound A9, N-(4-((4-methoxy-N-(methyl-d3)phenyl)sulfonamido)isoquinolin-1-yl)-N-((4-methoxyphenyl)sulfonyl)glycine], the metabolic stability result in data set [2] is reported as “degraded substantially”. This compound also showed a pIC50 against Kelch domain of KEAP1 (setting [4]) of 5.91. In addition, the “binding affinity (in words)” value at Kelch domain of KEAP1 is on record as “significantly diminished the binding affinity”.

The compound `COc1ccc(S(=O)(=O)N(CC(F)(F)F)c2cnc(N(CC(=O)O)S(=O)(=O)c3ccc(OC)cc3)c3ccccc23)cc1` [Compound B0, N-(4-((4-methoxy-N-(2,2,2-trifluoroethyl)phenyl)sulfonamido)isoquinolin-1-yl)-N-((4-methoxyphenyl)sulfonyl)glycine] came in with a logD at 1 h in data set [1] of 0.5.

Consider `COc1ccc(S(=O)(=O)Nc2cnc(N3CCC[C@@H]3C(=O)O)c3ccccc23)cc1` [Compound C5, (4-((4-methoxyphenyl)sulfonamido)isoquinolin-1-yl)-D-proline], for which the pIC50 against Kelch domain of KEAP1 (Table C, unit inferred) was < 4.60; against Kelch domain of KEAP1 (setting [4]), < 4.60.

Regarding `COc1ccc(S(=O)(=O)Nc2cnc(N3CCC[C@H]3C(=O)O)c3ccccc23)cc1` [Compound C6, (4-((4-methoxyphenyl)sulfonamido)isoquinolin-1-yl)-L-proline], the pIC50 at Kelch domain of KEAP1 (Table C, unit inferred) was 5.30; on Kelch domain of KEAP1 (setting [4]), 5.30.

Turning to `COc1ccc(S(=O)(=O)Nc2cnc(N3CC[C@@H](c4ccccc4)C3)c3ccccc23)cc1` [Compound C7, (S)-4-methoxy-N-(1-(3-phenylpyrrolidin-1-yl)isoquinolin-4-yl)benzenesulfonamide], the pIC50 was < 4.60 on Kelch domain of KEAP1 (Table C, unit inferred) and < 4.60 on Kelch domain of KEAP1 (setting [4]).

`COc1ccc(S(=O)(=O)Nc2cnc(N3CC[C@H](c4ccccc4)C3)c3ccccc23)cc1` [Compound C8, (R)-4-methoxy-N-(1-(3-phenylpyrrolidin-1-yl)isoquinolin-4-yl)benzenesulfonamide]: the pIC50 at Kelch domain of KEAP1 (Table C, unit inferred) is < 4.60; against Kelch domain of KEAP1 (setting [4]) it was < 4.60.

Consider `COc1ccc(S(=O)(=O)Nc2ccc(/C=C/C(=O)O)c3ccccc23)cc1` [Compound C9, (E)-3-(4-((4-methoxyphenyl)sulfonamido)naphthalen-1-yl)acrylic acid], for which the pIC50 on Kelch domain of KEAP1 (Table C, unit inferred) is 5.03; at Kelch domain of KEAP1 (setting [4]), 5.03.

Take `COc1ccc(S(=O)(=O)Nc2ccc(CCC(=O)O)c3ccccc23)cc1` [Compound C11, 3-(4-((4-methoxyphenyl)sulfonamido)naphthalen-1-yl)propanoic acid]: the pIC50 was 5.22 on Kelch domain of KEAP1 (Table C, unit inferred) and 5.22 on Kelch domain of KEAP1 (setting [4]).

For the compound `COc1ccc(CCc2ccc(NS(=O)(=O)c3ccc(OC)cc3)c3ccccc23)cc1` [Compound C13, 4-methoxy-N-(4-(4-methoxyphenethyl)naphthalen-1-yl)benzenesulfonamide], the negative logarithm of the IC50 (pIC50) against Kelch domain of KEAP1 (Table C, unit inferred) was < 4.60; on Kelch domain of KEAP1 (setting [4]) it was < 4.60.
